According to US20190110476A1, “NOVEL ISOTHIAZOLAMIDES, PROCESSES FOR THEIR PREPARATION AND THEIR USE AS FUNGICIDES” (priority 2014, published 2019):
Marks after values point to notes of the source that are not given here.

Test: Measurement of LogP values by HPLC on reversed phase columns (EEC directive 79/831 Annex V.A8)
Assay type: physicochemical
Conditions: not given
How it was run: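 LogP measured by reversed-phase HPLC following EEC directive 79/831 Annex V.A8. Lambda-max taken from UV spectra at 200–400 nm at chromatographic peak maxima; diastereoisomer values listed separately.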

| SMILES | LogP | LogP [a] | LogP [b] |
| --- | --- | --- | --- |
| O=C(NC1CCCCC1)c1snc(N(Cc2ccccc2)Cc2ccccc2)c1-c1ccc(F)cc1 [I-319] | 5.98[a] | – | – |
| O=C(NCc1ccc(Cl)cc1Cl)c1cc(N(Cc2ccccc2)Cc2ccccc2)ns1 [I-323] | 5.17[a] | – | – |
| COc1ccc(CNc2nsc(C(=O)N(Cc3ccc(Cl)cc3Cl)CC3CC3)c2Cl)cc1 [I-935] | 5.45[a] | – | – |
| COc1ccc(CNc2nsc(C(=O)NCC3(C)CCCO3)c2Cl)cc1 (centres unmarked) [I-1236] | 3.06[a] | – | – |
| O=C(c1cc(N(Cc2ccccc2)Cc2ccccc2)ns1)N(Cc1cc(Cl)ccc1Br)C1CC1 [I-993] | 6.11[a] | – | – |
| CCOc1c(N)nsc1C(=O)NCC1CCCC1 [I-725] | 2.18[a] | – | – |
| Cc1ccc(F)c(CN(C(=O)c2snc(N)c2Cl)C2CC2)c1 [I-363] | 2.80[a] | – | – |
| Nc1nsc(C(=O)N[C@@H]2CCCC[C@H]2Cl)c1I (relative stereo) [I-1565] | 2.12[a] | – | – |
| COc1ccc(CNc2nsc(C(=O)N(Cc3ccccc3)C3CC3)c2Cl)cc1 [I-897] | 4.14[a] | – | – |
| O=C(NCc1ccc(F)cc1F)c1cc(N(Cc2ccccc2)Cc2ccccc2)ns1 [I-322] | 4.45[a] | – | – |
| Nc1nsc(C(=O)NCC2CCCCC2Cl)c1I (centres unmarked) [I-1293] | 2.50[a] | – | – |
| CON(C(=O)c1snc(Cl)c1Cl)C(C)C1CCCCC1 (centres unmarked) [E-II-028] | – | 5.27 | 5.09 |
| Nc1nsc(C(=O)N2CCc3ccccc3C2)c1Cl [II-020] | – | 2.02 | 1.98 |
| Nc1cc(C(=O)NCc2ccccc2)sn1 [I-008] | 1.32[a] | – | – |
| COc1ccc(CNc2nsc(C(=O)N(Cc3cc(F)ccc3F)C3CC3)c2Cl)cc1 [I-987] | 4.15[a] | – | – |
| COc1ccc(CNc2nsc(C(=O)NCc3ccc(Oc4ccccc4)cc3)c2Cl)cc1 [I-221] | 4.41[a] | – | – |
| Nc1nsc(C(=O)N(c2cc(F)cc(F)c2)C2CC2)c1Cl [I-959] | 2.48[a] | – | – |
| Cc1ccc(S(C)=Nc2nsc(C(=O)NCc3ccc(F)c(F)c3F)c2F)cc1 (centres unmarked) [II-077] | – | 2.73^[a] | – |
| Nc1cc(C(=O)N(Cc2c(F)cccc2Cl)C2CC2)sn1 [I-909] | 2.28[a] | – | – |
| COc1ccc(CNc2nsc(C(=O)NC3CCc4ccccc43)c2Cl)cc1 (centres unmarked) [I-111] | 4.04[a] | – | – |
| O=C(NCC1CCCOC1)c1snc(Cl)c1Cl (centres unmarked) [E-II-005] | – | 2.18^[a] | – |
| Nc1nsc(C(=O)Nc2cccc3c2CCC3)c1Cl [I-926] | 2.75[a] | – | – |
| COc1ccc(CNc2nsc(C(=O)NCc3ccn(C)n3)c2Cl)cc1 [I-1238] | 2.39[a] | – | – |

| SMILES | LogP | LogP [a] | LogP [b] |
| --- | --- | --- | --- |
| COc1ccc(CNc2nsc(C(=O)OC(C)C)c2NCc2ccc(OC)cc2)cc1 [E-VII-063] | – | 4.56 | 4.51 |
| O=C(NCc1ccccc1F)c1snc(N(Cc2ccccc2)Cc2ccccc2)c1-c1ccc(F)cc1 [I-320] | 5.45[a] | – | – |
| COc1ccc(CNc2nsc(C(=O)NC(C)c3ccc(Cl)nc3)c2Cl)cc1 (centres unmarked) [I-1343] | 3.17[a] | – | – |
| Nc1nsc(C(=O)NCC2CCCCC2Cl)c1F (centres unmarked) [I-1536] | 2.16[a] | – | – |
| Nc1nsc(C(=O)NCC2CC=C(F)CC2)c1F (centres unmarked) [I-1296] | 1.69[a] | – | – |
| CCC1(CNC(=O)c2snc(NC(C)C)c2Cl)CCCCC1 [I-834] | 5.03[a] | – | – |
| Cc1c(N)nsc1C(=O)NCC1CCCCC1 [I-042] | 2.01[a] | – | – |
| O=C(NCc1cc(F)c(F)cc1F)c1snc(N=S2CCCC2)c1F [II-074] | – | 1.53^[a] | – |
| Nc1nsc(C(=O)N2CCc3c(Cl)ccc(Cl)c3C2)c1Cl [II-022] | – | 2.88 | 2.82 |
| COC1(CNC(=O)c2snc(N)c2Cl)CCC(C)CC1 (centres unmarked) [I-837] | 2.58[a] | – | – |
| CCOC(=O)c1snc(N(Cc2ccccc2)Cc2ccccc2)c1Cl [E-VII-013] | – | 5.73^[a] | – |
| Nc1nsc(C(=O)NCC2CCCO2)c1Cl (centres unmarked) [I-013] | 1.02[a] | – | – |
| C[C@H]1CCCC[C@H]1NC(=O)c1snc(N)c1F (relative stereo) [I-1356] | 2.11[a] | – | – |
| CS(C)=Nc1nsc(C(=O)NCc2cc(F)c(F)c(F)c2)c1Cl [II-046] | – | 1.68^[a] | – |
| Nc1nsc(C(=O)NC2CCCC3CCCCC32)c1Cl (centres unmarked) [I-622] | 3.48[a] | – | – |
| COc1ccc(CNc2nsc(C(=O)N3CCCc4ccc(C(F)(F)F)cc43)c2Cl)cc1 [II-062] | – | 4.37 | 4.25 |
| Nc1cc(C(=O)N(Cc2ccccc2)C2CC2)sn1 [I-978] | 2.02[a] | – | – |
| Nc1nsc(C(=O)NCc2ccc(F)c(Oc3ccccc3)c2)c1Cl [I-237] | 2.90[a] | – | – |
| COc1ccc(CNc2nsc(C(=O)NCc3cc(F)cc(C(F)(F)F)c3)c2Cl)cc1 [I-1264] | 4.15[a] | – | – |
| COc1ccc(CNc2nsc(C(=O)NCC3(C)CCCCC3)c2Cl)cc1 [I-079] | 4.69[a] | – | – |
| CCc1cccc(C)c1CN(C(=O)c1snc(NCc2ccc(OC)cc2)c1Cl)C1CC1 [I-898] | 5.17[a] | – | – |
| Nc1cc(C(=O)NCc2ccc(F)cc2F)sn1 [I-031] | 1.56[a] | – | – |
| Nc1nsc(C(=O)NCc2cc(Cl)ccc2C(F)(F)F)c1Cl [I-327] | 2.88[a] | – | – |

| SMILES | LogP | LogP [a] | LogP [b] |
| --- | --- | --- | --- |
| COc1ccc(CNc2nsc(C(=O)NCc3ncc(C(F)(F)F)cc3Cl)c2Cl)cc1 [I-268] | 4.29[a] | – | – |
| Nc1cc(C(=O)Nc2ccccc2)sn1 [I-855] | 1.41[a] | – | – |
| O=C(NCC1CCCCC1)c1snc(N=S2CCCCC2)c1Cl [II-088] | – | 2.60^[a] | – |
| COc1ccc(CNc2nsc(C(=O)NC3CCCc4cc(C(C)(C)C)ccc43)c2Cl)cc1 (centres unmarked) [I-1311] | 5.46[a] | – | – |
| C[C@H](NC(=O)c1snc(N(Cc2ccccc2)Cc2ccccc2)c1C(F)F)C1CCCCC1 [I-263] | 6.20[a] | – | – |
| Nc1nsc(C(=O)NCCc2ccc(F)cc2)c1Cl [I-966] | 2.13[a] | – | – |
| CN(C)C=Nc1nsc(C(=O)NCc2ccc(Cl)cc2)c1Cl [II-031] | – | 2.41^[a] | – |
| O=C(NCC1CCCCO1)c1snc(Cl)c1Cl (centres unmarked) [E-II-010] | – | 2.87^[a] | – |
| C[C@@H](NC(=O)c1snc(N)c1Cl)C1CCCCC1 [I-077] | 2.78[a] | – | – |
| COc1ccc(CNc2nsc(C(=O)N(c3cc(F)cc(F)c3)C3CC3)c2Cl)cc1 [I-918] | 4.10[a] | – | – |
| O=C(NCc1cccc(Cl)c1)c1cc(N(Cc2ccccc2)Cc2ccccc2)ns1 [I-283] | 4.71[a] | – | – |
| CON(CC1CCCCC1)C(=O)c1snc(N)c1Cl [I-543] | 3.04[a] | – | – |
| N#Cc1ccccc1NC(=O)c1cc(N(Cc2ccccc2)Cc2ccccc2)ns1 [I-905] | 4.26[a] | – | – |
| O=C(NC1CCCc2ccccc21)c1snc(Cl)c1Cl (centres unmarked) [E-II-021] | – | 4.07 | 3.98 |
| CCCS(CC)=Nc1nsc(C(=O)NCC2CCCCC2)c1F (centres unmarked) [II-093] | – | 2.07^[a] | – |
| C[C@H](NC(=O)c1snc(N=C(c2ccccc2)c2ccccc2)c1Cl)C1CCCCC1 [II-003] | – | 5.93^[a] | – |
| Nc1nsc(C(=O)NCC2CCCC(Cl)C2)c1Cl (centres unmarked) [I-1580] | 2.23[a] | – | – |
| Cc1cc(C)c(CN(C(=O)c2snc(N)c2Cl)C2CC2)c(C)c1 [I-116] | 3.46[a] | – | – |
| COc1ccc(CNc2nsc(C(=O)NC(C#N)c3cccc(Cl)c3Cl)c2Cl)cc1 (centres unmarked) [I-1335] | 4.05[a] | – | – |
| Nc1nsc(C(=O)NCC2CCCCC2C(F)(F)F)c1Cl (centres unmarked) [I-1554] | 2.51[a] | – | – |
| COc1ccc(CNc2nsc(C(=O)N(Cc3ccc(F)cc3F)C(=O)c3ccc(C(F)(F)F)cc3)c2Cl)cc1 [I-1556] | 5.14[a] | – | – |
| COc1ccc(CNc2nsc(C(=O)N3CCc4c(Cl)cccc4C3)c2Cl)cc1 [II-098] | – | 4.20^[a] | – |
| O=C(NCc1ccccc1F)c1cc(N(Cc2ccccc2)Cc2ccccc2)ns1 [I-311] | 4.38[a] | – | – |

| SMILES | LogP | LogP [a] | LogP [b] |
| --- | --- | --- | --- |
| CCCS(CC)=Nc1nsc(C(=O)NCc2c(F)cc(F)cc2F)c1F (centres unmarked) [II-105] | – | 1.92^[a] | – |
| CCC(c1ccccc1)N(C(=O)c1snc(N)c1Cl)C1CC1 (centres unmarked) [I-888] | 3.11[a] | – | – |
| CCC(=O)Nc1nsc(C(=O)NCc2ccc(F)cc2OC)c1Cl [I-815] | 2.10[a] | – | – |
| COc1ccc(CNc2nsc(C(=O)NCc3ccc(OC)cn3)c2Cl)cc1 [I-1318] | 2.45[a] | – | – |
| COc1ccc(CNc2nsc(C(=O)NCc3ccc(OC)c(C(F)(F)F)c3)c2Cl)cc1 [I-1321] | 3.85[a] | – | – |
| Nc1nsc(C(=O)N(Cc2ccc(Cl)cc2Cl)CC2CC2)c1Cl [I-212] | 3.74[a] | – | – |
| CCC(C)C(C)N(C(=O)c1snc(NCc2ccc(OC)cc2)c1Cl)C1CC1 (centres unmarked) [I-894] | 4.85[a] | – | – |
| CCC1(C)CC(NC(=O)c2snc(NCc3ccc(OC)cc3)c2Cl)CC(C)(C)C1 (centres unmarked) [I-1254] | 5.72[a] | – | – |
| COc1cc(F)ccc1CNC(=O)c1snc(N)c1Cl [I-782] | 2.02[a] | – | – |
| COc1cccc(CNC(=O)c2snc(N)c2Cl)c1 [I-022] | 1.75[a] | – | – |
| Nc1cc(C(=O)NCc2ccc(Cl)cc2)sn1 [I-028] | 1.75[a] | – | – |
| COc1ccc(CNc2nsc(C(=O)NCc3cccs3)c2Cl)cc1 [I-1241] | 3.31[a] | – | – |
| CCC(C)C(C)N(C(=O)c1cc(N(Cc2ccccc2)Cc2ccccc2)ns1)C1CC1 (centres unmarked) [I-938] | 5.97[a] | – | – |
| O=C(c1cc(NCc2ccccc2)ns1)N(Cc1cc(F)ccc1F)C1CC1 [I-998] | 3.74[a] | – | – |
| Nc1nsc(C(=O)NCC2CCOCC2)c1Cl [I-012] | 0.90[a] | – | – |
| O=C(NCc1ccccc1F)c1snc(Cl)c1Cl [E-II-008] | – | 3.23^[a] | – |
| Cc1ccc(NC(=O)c2snc(N)c2Cl)cc1 [I-916] | 2.27[a] | – | – |
| O=C(NC1CCCC2CCCCC21)c1snc(N=CN2CCCC2)c1Cl (centres unmarked) [II-036] | – | 3.52^[a] | – |
| O=C(NCC1CCOCC1)c1snc(N=C(c2ccccc2)c2ccccc2)c1Cl [II-006] | – | 3.60^[a] | – |
| CCCCCn1cc(CNC(=O)c2snc(NCc3ccc(OC)cc3)c2Cl)c(C)n1 [I-1259] | 3.57[a] | – | – |
| O=C(NCc1ccccc1Cl)c1snc(N=C(c2ccccc2)c2ccccc2)c1Cl [II-004] | – | 4.89^[a] | – |
| COc1ccc(CNc2nsc(C(=O)NCc3csc(C)n3)c2Cl)cc1 [I-1217] | 2.69[a] | – | – |

Same assay, conditions: HPLC LC-UV, acidic range, 0.1% formic acid in water and acetonitrile as eluent

| SMILES | chromatographic logP |
| --- | --- |
| O=C(NCC1CCCCC1)c1snc(N=C(c2ccccc2)c2ccccc2)c1Cl [II-002, 4-chloro-N-(cyclohexylmethyl)-3-[(diphenylmethylene)amino]isothiazole-5-carboxamide] | 5.65 |
